Experimental data: ChEMBL document CHEMBL4330059, “Discovery of N1-(4-((7-(3-(4-ethylpiperazin-1-yl)propoxy)-6-methoxyquinolin-4-yl)oxy)-3,5-difluorophenyl)-N3-(2-(2,6-difluorophenyl)-4-oxothiazolidin-3-yl)urea as a multi-tyrosine kinase inhibitor for drug-sensitive and drug-resistant cancers treatment” (Eur J Med Chem, 2019)
Active and inactive are the calls of the source. The rule behind the calls is not given here.

Columns and labels:
[1] = tested on: A549; assay: Antiproliferative activity against human A549 cells after 72 hrs by MTT assay; assay type: functional, cell-based; conditions: A549, 72 h
[2] = tested on: HT-29; assay: Antiproliferative activity against human HT-29 cells after 72 hrs by MTT assay; assay type: functional, cell-based; conditions: HT-29, 72 h
[3] = tested on: MDA-MB-231; assay: Antiproliferative activity against human MDA-MB-231 cells after 72 hrs by MTT assay; assay type: functional, cell-based; conditions: MDA-MB-231, 72 h
[4] = tested on: HT-29; assay: Cytotoxicity against human HT-29 cells assessed as increase in dead cells at 10 ug/mL up to 36 hrs by yoyo-1 dye-based fluorescence assay; assay type: functional, cell-based
[5] = tested on: FHC; assay: Cytotoxicity against human FHC cells after 72 hrs by MTT assay; assay type: cell-based
[6] = tested on: HT-29; assay: Induction of apoptosis in human HT-29 cells assessed as early apoptotic cells at 5 ug/mL after 72 hrs by Annexin V-FITC/propidium iodide staining-based flow cytometric analysis (reference value: 0%); assay type: functional
[7] = Antiproliferative activity against human MCF7/DX cells after 72 hrs by MTT assay; assay type: functional, cell-based
[8] = tested on: HT-29; assay: Antiproliferative activity against human HT-29 cells at 10 ug/ml after 72 hrs by IncuCyte live-cell imaging assay; assay type: functional, cell-based
[9] = tested on: HT-29; assay: Antiproliferative activity against human HT-29 cells at 3.33 ug/ml after 36 to 72 hrs by phase contrast microscopy; assay type: functional, cell-based
[10] = tested on: MCF7; assay: Antiproliferative activity against human MCF7 cells after 72 hrs by MTT assay; assay type: functional, cell-based; conditions: MCF7, 72 h
[11] = tested on: HT-29; assay: Induction of apoptosis in human HT-29 cells assessed as late apoptotic cells at 5 ug/mL after 72 hrs by Annexin V-FITC/propidium iodide staining-based flow cytometric analysis (reference value: 0.1%); assay type: functional
[12] = tested on: HT-29; assay: Antimigratory activity against human HT-29 cells at 3.33 ug/mL after 48 to 72 hrs by wound healing assay; assay type: functional, cell-based
[13] = tested on: A549/CDDP; assay: Antiproliferative activity against human A549/CDDP cells after 72 hrs by MTT assay; assay type: functional, cell-based
[14] = Selectivity index, ratio of IC50 for human FHC cells to IC50 for human HT-29 cells; assay type: toxicity; conditions: FHC cells and HT-29 cells, read-out: Ratio IC50

`COc1cc2c(Oc3c(F)cc(NC(=O)NN4C(=O)CSC4c4c(F)cccc4F)cc3F)ccnc2cc1OCCCN1C[C@H]2CCCC[C@H]2C1` (stereo not given in full) gave an IC50 [1] of 1930 nM and an IC50 [2] of 470 nM.

In the case of `COc1cc2c(Oc3ccc(NC(=O)NN4C(=O)CSC4c4c(F)cccc4F)cc3Cl)ccnc2cc1OCCCN1CCCC1` (stereo not given), the IC50 [1] is reported as 880 nM and the IC50 [2] is reported as 480 nM.

Compound `COc1cc2c(Oc3c(F)cc(NC(=O)NN4C(=O)CCSC4c4c(F)cccc4F)cc3F)ccnc2cc1OCCCN1CCCC1` (stereo not given) has an IC50 [1] of 400 nM, an IC50 [2] of 270 nM and an IC50 [3] of 9650 nM.

With `COc1cc2c(Oc3c(F)cc(NC(=O)NN4C(=O)CCSC4c4c(F)cccc4F)cc3F)ccnc2cc1OCCCN1CCc2sccc2C1` (stereo not given) the IC50 [1] was > 20000 nM and the IC50 [2] was 1320 nM.

Work on `COc1cc2c(Oc3c(F)cc(NC(=S)NN4C(=O)CSC4c4c(F)cccc4F)cc3F)ccnc2cc1OCCCN1CCCC1` (stereo not given) yielded an IC50 [1] of 690 nM, an IC50 [2] of 410 nM and an IC50 [3] of 8120 nM.

`COc1cc2c(Oc3c(F)cc(NC(=O)NN4C(=O)CSC4c4c(F)cccc4F)cc3F)ccnc2cc1OCCCN1CCC(C)CC1` (stereo not given) gave an IC50 [1] of 970 nM, an IC50 [2] of 220 nM and an IC50 [3] of 3830 nM.

`COc1cc2c(Oc3c(F)cc(NC(=O)NN4C(=O)C(C)(C)SC4c4c(F)cccc4F)cc3F)ccnc2cc1OCCCN1CCCC1` (stereo not given) showed an IC50 [1] of 1450 nM and an IC50 [2] of 950 nM.

For `CCN1CCN(CCCCOc2cc3nccc(Oc4c(F)cc(NC(=O)NN5C(=O)CSC5c5c(F)cccc5F)cc4F)c3cc2OC)CC1` (stereo not given), the IC50 [1] was 1390 nM and the IC50 [2] was 830 nM.

`COc1cc2c(Oc3ccc(NC(=O)NN4C(=O)CSC4c4c(F)cccc4F)c(Cl)c3)ccnc2cc1OCCCN1CCCC1` (stereo not given) gave an IC50 [1] of 960 nM and an IC50 [2] of 630 nM.

With `COc1cc2c(Oc3c(F)cc(NC(=O)NN4C(=O)CSC4c4c(F)cccc4F)cc3F)ccnc2cc1OCCCN1CCC(N2CCCCC2)CC1` (stereo not given) the IC50 [1] was 380 nM, the IC50 [2] was 280 nM and the IC50 [3] was 5380 nM.

Compound `COc1cc2c(Oc3c(F)cc(NC(=O)NN4C(=O)CCSC4c4c(F)cccc4F)cc3F)ccnc2cc1OCCCN1C[C@H]2CCCC[C@H]2C1` (stereo not given in full) has an IC50 [1] of 3610 nM and an IC50 [2] of 790 nM.

`COc1cc2c(Oc3ccc(NC(=O)NN4C(=O)CSC4c4c(F)cccc4F)cc3F)ccnc2cc1OCCCN1CCCC1` (stereo not given) showed an IC50 [1] of 690 nM, an IC50 [2] of 350 nM and an IC50 [3] of 9040 nM.

In the case of `COc1cc2c(Oc3c(F)cc(NC(=O)NN4C(=O)CSC4c4c(F)cccc4F)cc3F)ccnc2cc1OCCN1CCC(N2CCCCC2)CC1` (stereo not given), the IC50 [1] is reported as 2380 nM and the IC50 [2] is reported as 490 nM.

For `COc1cc2nccc(Oc3ccc(NC(=O)C4(C(=O)Nc5ccc(F)cc5)CC4)cc3)c2cc1OC` [CABOZANTINIB], the Activity [4] was “Active”, the IC50 [5] was 4400 nM and the Activity [6] was 78.4%. The IC50 [1] was 9520 nM, the IC50 [7] was > 50000 nM and the Activity [8] was “Active”. The IC50 [2] was 11500 nM, the Activity [9] was “Active” and the IC50 [10] was 8570 nM. The IC50 [3] was 13400 nM, the Activity [11] was 10.9% and the Activity [12] was “Active”. It also gave an IC50 [13] of 19600 nM.

`COc1cc2c(Oc3c(F)cc(NC(=O)NN4C(=O)CSC4c4c(F)cccc4F)cc3F)ccnc2cc1OCCCN1CCCC1` (stereo not given) showed an IC50 [1] of 560 nM, an IC50 [2] of 230 nM and an IC50 [3] of 8350 nM.

In the case of `CCN(CC)CCCOc1cc2nccc(Oc3c(F)cc(NC(=O)NN4C(=O)CSC4c4c(F)cccc4F)cc3F)c2cc1OC` (stereo not given), the IC50 [5] is reported as 540 nM, the IC50 [1] is reported as 450 nM and the IC50 [7] is reported as 3400 nM. For the same compound, the IC50 [2] was 91 nM, the IC50 [10] was 1600 nM and the selectivity ratio [14] was 5.9. The IC50 [3] was 3790 nM and the IC50 [13] was 540 nM.

Work on `COc1cc2c(Oc3c(F)cc(NC(=O)NN4C(=O)C(C)SC4c4c(F)cccc4F)cc3F)ccnc2cc1OCCCN1CCCC1` (stereo not given) yielded an IC50 [1] of 830 nM and an IC50 [2] of 670 nM.

For `COc1cc2c(Oc3c(F)cc(NC(=O)NN4C(=O)CCSC4c4c(F)cccc4F)cc3F)ccnc2cc1OCCCN1CCC(C)CC1` (stereo not given), the IC50 [1] was 1630 nM, the IC50 [2] was 410 nM and the IC50 [3] was 4350 nM.

`COc1cc2c(Oc3c(F)cc(NC(=O)NN4C(=O)CSC4c4c(F)cccc4F)cc3F)ccnc2cc1OCCCN1CCN(C)CC1` (stereo not given) gave an IC50 [1] of 510 nM, an IC50 [2] of 150 nM and an IC50 [3] of 4360 nM.

With `COc1cc2c(Oc3c(F)cc(NC(=O)NN4C(=O)CSC4c4c(F)cccc4F)cc3F)ccnc2cc1OCCCN1CCc2sccc2C1` (stereo not given) the IC50 [1] was > 20000 nM and the IC50 [2] was 1410 nM.

`COc1cc2c(Oc3ccc(NC(=O)NN4C(=O)CSC4c4c(F)cccc4F)c4ccccc34)ccnc2cc1OCCCN1CCCC1` (stereo not given) gave an IC50 [1] of 2360 nM and an IC50 [2] of 1860 nM.

`CCN1CCN(CCOc2cc3nccc(Oc4c(F)cc(NC(=O)NN5C(=O)CSC5c5c(F)cccc5F)cc4F)c3cc2OC)CC1` (stereo not given) showed an IC50 [1] of 1520 nM, an IC50 [2] of 350 nM and an IC50 [3] of 5910 nM.
